Experimental data: patent US8008329B2 (Dong Wha Pharmaceutical Co., Ltd., priority 2008, dated 2011)
Marks after values point to notes of the source that are not given here.

Test system: osteoclast differentiation
Test: Osteoclast differentiation in co-culture of mouse bone marrow cells and ST2 cells, TRAP staining (Examples 8-9)
Type: cell-based
Conditions: for % number of osteoclast (vs. solvent control group): 0.1 μM each, day 7; for activity at 0.1 µM: Mus musculus, Osteoclast, 168 h, Individual treatment (compounds), day 7, read-out: % number of osteoclast (vs. solvent control group)
Protocol: The differentiation of osteoclast from mouse bone marrow cells was induced by using co-culture system, and inhibitory effect of the drug on osteoclast differentiation was evaluated by treatment of single or combination formulation. Co-culture was performed using mouse bone marrow cells and ST cells of bone marrow-derived stromal cell.
Femora and tibia were aseptically ectomized from 6˜8 week-old male ddY mice to harvest bone marrow cells by a general method using a syringe. The red blood cells were removed from the bone marrow cells, followed by centrifugation. The bone marrow cells were suspended in α-MEM medium supplemented with 10% fetal bovine serum, and the numbers of the eukaryotic cells in the harvested bone marrow cells were counted and then immediately used for a co-culture system.
ST2 cells (RIKEN Cell Bank, Tsukuba, Japan) were cultured in α-MEM medium supplemented with 10% fetal bovine serum until confluent. Then, these cells were diluted to a desired cell number, and used for the experiment.
The bone marrow cells (1×10^5 cells/well) and ST2 cells (3,000 cells/well) prepared in the above were plated in a 96-well plate using α-MEM medium supplemented with 10% fetal bovine serum. At this time, differentiation factors, 1α,25-dihydroxyvitamin D3 (10^−8 M, hereinbelow, referred to as vitamin D3) and dexamethasone (10^−8 M), were co-added to the medium to induce osteoclast differentiation. The medium was replaced with fresh media containing the differentiation factors every 2 to 3 days.
After 7 days, when multinucleated osteoclasts were observed, the medium was removed from the wells, and then the cells were fixed with PBS containing 10% Formalin. Tartrate-Resistant Acid Phosphatase (hereinbelow, referred to as TRAP) was used as a marker to measure the mature osteoclast in consideration of its characteristics showing a positive reaction to a TRAP staining solution. The TRAP staining solution was prepared in such the manner that a substrate, naphtol AS-MS phosphate and a coloring agent (Fast Red Violet LB salt) were dissolved in N,N-dimethylformamide. A 0.1 N NaHCO3 buffer solution containing 50 mM tartaric acid was added thereto, and the mixture was stored at a refrigerator prior to use as a staining solution. The osteoclasts with 6-7 or more nuclei showing a TRAP-positive reaction were counted under a microscope.
Alendronic acid was dissolved in distilled water at a concentration of 0.1 mM, and benzamidine derivatives were dissolved in DMSO at a concentration of 0.1 mM. All of them were diluted 1,000 fold with the differentiation media to a final concentration of 0.1 μM, respectively. In this connection, a control group was maintained in 0.1% DMSO.
As the above described, the sample substances and cells, which were diluted to the desired concentrations, were plated in 96-well plate, and co-cultured. On days 3 and 5 of culture, the media were replaced with fresh differentiation media containing the sample substances. On day 7 of culture, TRAP staining was performed to count the mature multinucleated osteoclast that was formed by differentiation. The mature osteoclasts with 6 or more nuclei were counted under a microscope. The results were expressed as a percentage (%) of the number of mature osteoclast observed in each experimental group, when the number of mature osteoclast in the control group (solvent only) was regarded as 100%. The experiment was performed with 4 wells per experimental group (n=4), and the results were expressed as mean value±standard deviation. In addition, the experiment was repeated at least two times, and Student t-test was applied for significant difference between experimental groups.
The experiment was performed in the same manner as in Example 8 to evaluate the effect of individual or combination treatment of risedronic acid and benzamidine derivatives of Formula 1 on osteoclast differentiation, except using 0.1 μM risedronic acid instead of 0.1 μM alendronic acid. […]

[1] = Combination treatment (alendronic acid + compounds)
[2] = Combination treatment (risedronic acid + compounds)

Structure (SMILES): CCc1sc(NC(=O)c2ccncc2)nc1-c1ccc(OCCCCCOc2ccc(C(=N)NO)cc2)cc1 [Compound 100, N-hydroxy-4-{5-[4-(5-ethyl-2-(4-pyridylcarbonyl)amino-1,3-thiazol-4-yl)phenoxy]pentyloxy}-benzamidine]
- % number of osteoclast (vs. solvent control group) [1]: 14 ± 6.9^ab %
- % number of osteoclast (vs. solvent control group) [2]: 12 ± 3.0^ac %
- activity at 0.1 µM: 46 ± 8.4%

Structure (SMILES): Cc1nc(-c2ccc(OCCCCCOc3ccc(C(=N)NO)cc3)cc2)c(CC2CCCC2)s1 [Compound 45, N-hydroxy-4-{5-[4-(5-cyclopentylmethyl-2-methyl-1,3-thiazol-4-yl)phenoxy]pentyloxy}-benzamidine]
- % number of osteoclast (vs. solvent control group) [1]: 49 ± 8.1^ab %
- % number of osteoclast (vs. solvent control group) [2]: 38 ± 11.9^ac %
- activity at 0.1 µM: 72 ± 4.6%

Structure (SMILES): CC(C)c1sc(N(C)Cc2cccnc2)nc1-c1ccc(OCCCCCOc2ccc(C(=N)NO)cc2)cc1 [Compound 141, N-hydroxy-4-[5-(4-{5-isopropyl-2-[methyl-(pyridin-3-ylmethyl)amino]-1,3-thiazol-4-yl}phenoxy)pentyloxy]-benzamidine]
- % number of osteoclast (vs. solvent control group) [1]: 65 ± 2.8%
- % number of osteoclast (vs. solvent control group) [2]: 60 ± 7.5^ac %
- activity at 0.1 µM: 84 ± 8.8%

Structure (SMILES): CCNc1nc(-c2ccc(OCCCCCOc3ccc(C(=N)NO)cc3)cc2)c(CC)s1 [Compound 97, N-hydroxy-4-{5-[4-(5-ethyl-2-ethylamino-1,3-thiazol-4-yl)phenoxy]pentyloxy}-benzamidine]
- % number of osteoclast (vs. solvent control group) [1]: 30 ± 5.7^ab %
- % number of osteoclast (vs. solvent control group) [2]: 13 ± 4.3^ac %
- activity at 0.1 µM: 57 ± 5.2%

Structure (SMILES): N=C(NO)c1ccc(OCCCCCOc2ccc(-c3nc(C4CCCCC4)sc3CCNCCN3CCOCC3)cc2)cc1 [Compound 248, N-hydroxy-4-[5-(4-{2-cyclohexyl-5-[2-(2-morpholin-4-yl-ethylamino)-ethyl]-thiazol-4-yl}-phenoxy)-pentyloxy]-benzamidine]
- % number of osteoclast (vs. solvent control group) [1]: 33 ± 5.6^b %
- % number of osteoclast (vs. solvent control group) [2]: 27 ± 4.9^ac %
- activity at 0.1 µM: 49 ± 8.7%

Structure (SMILES): Cc1nc(-c2ccc(OCCCCCOc3ccc(C(=N)NO)cc3)cc2)c(N(C)C)s1 [Compound 326, N-hydroxy-4-{5-[4-(5-dimethylamino-2-methyl-thiazol-4-yl)-phenoxy]-pentyloxy}-benzamidine]
- % number of osteoclast (vs. solvent control group) [1]: 34 ± 2.7^b %
- % number of osteoclast (vs. solvent control group) [2]: 15 ± 6.0^ac %
- activity at 0.1 µM: 46 ± 11%

Structure (SMILES): CN(C)c1nc(-c2ccc(OCCCCCOc3ccc(C(=N)NO)cc3)cc2)c(CC2CCCC2)s1 [Compound 163, N-hydroxy-4-{5-[4-(5-cyclopentylmethyl-2-dimethylamino-1,3-thiazol-4-yl)phenoxy]pentyloxy}-benzamidine]
- % number of osteoclast (vs. solvent control group) [1]: 55 ± 7.6%
- % number of osteoclast (vs. solvent control group) [2]: 41 ± 7.3^ac %
- activity at 0.1 µM: 65 ± 8.8%

Structure (SMILES): COCCN(CCOC)c1nc(-c2ccc(OCCCCCOc3ccc(C(=N)NO)cc3)cc2)c(CCN2CCOCC2)s1 [Compound 271, N-hydroxy-4-(5-{4-[2-[bis-(2-methoxy-ethyl)-amino]-5-(2-morpholin-4-yl-ethyl)-thiazol-4-yl]-phenoxy}-pentyloxy)-benzamidine]
- % number of osteoclast (vs. solvent control group) [1]: 13 ± 3.7^ab %
- % number of osteoclast (vs. solvent control group) [2]: 16 ± 2.9^ac %
- activity at 0.1 µM: 30 ± 5.3%

Structure (SMILES): CN(CCN1CCOCC1)c1nc(-c2ccc(OCCCCCOc3ccc(C(=N)NO)cc3)cc2)c(C2CCCC2)s1 [Compound 153, N-hydroxy-4-[5-(4-{5-cyclopentyl-2-[methyl-(2-morpholinoethyl)amino]-1,3-thiazol-4-yl}phenoxy)pentyloxy]-benzamidine]
- % number of osteoclast (vs. solvent control group) [1]: 27 ± 3.5^ab %
- % number of osteoclast (vs. solvent control group) [2]: 22 ± 4.5^ac %
- activity at 0.1 µM: 55 ± 3.1%

Structure (SMILES): CCCCNCc1sc(C)nc1-c1ccc(OCCCCCOc2ccc(C(=N)NO)cc2)cc1 [Compound 298, N-hydroxy-4-{5-[4-(5-butylaminomethyl-2-methyl-thiazol-4-yl)-phenoxy]-pentyloxy}-benzamidine]
- % number of osteoclast (vs. solvent control group) [1]: 16 ± 3.3^ab %
- % number of osteoclast (vs. solvent control group) [2]: 8 ± 2.9^ac %
- activity at 0.1 µM: 55 ± 6.1%

Structure (SMILES): CCCN(CCC)CCc1sc(C2CCCCC2)nc1-c1ccc(OCCCCCOc2ccc(C(=N)NO)cc2)cc1 [Compound 251, N-hydroxy-4-(5-{4-[2-cyclohexyl-5-(2-dipropylamino-ethyl)-thiazol-4-yl]-phenoxy}-pentyloxy)-benzamidine]
- % number of osteoclast (vs. solvent control group) [1]: 20 ± 6.4^ab %
- % number of osteoclast (vs. solvent control group) [2]: 18 ± 4.4^ac %
- activity at 0.1 µM: 45 ± 9.6%

Structure (SMILES): CCCCc1sc(C(C)(C)C)nc1-c1ccc(OCCCCCOc2ccc(C(=N)NO)cc2)cc1 [Compound 37, N-hydroxy-4-{5-[4-(5-butyl-2-t-butyl-1,3-thiazol-4-yl)phenoxy]pentyloxy}-benzamidine]
- % number of osteoclast (vs. solvent control group) [1]: 30 ± 9.9^b %
- % number of osteoclast (vs. solvent control group) [2]: 36 ± 14.4^c %
- activity at 0.1 µM: 68 ± 18.9%

Structure (SMILES): C=Cc1sc(C)nc1-c1ccc(OCCCCCOc2ccc(C(=N)NO)cc2)cc1 [Compound 74, N-hydroxy-4-{5-[4-(5-vinyl-2-methyl-1,3-thiazole-4-yl)phenoxy]pentyloxy}-benzamidine]
- % number of osteoclast (vs. solvent control group) [1]: 36 ± 4.3^ab %
- % number of osteoclast (vs. solvent control group) [2]: 28 ± 5.4^ac %
- activity at 0.1 µM: 60 ± 0.7%

Structure (SMILES): CCCN(CCC)c1nc(-c2ccc(OCCCCCOc3ccc(C(=N)NO)cc3)cc2)c(CC2CCCC2)s1 [Compound 149, N-hydroxy-4-{5-[4-(5-cyclopentylmethyl-2-dipropylamino-1,3-thiazol-4-yl)phenoxy]pentyloxy}-benzamidine]
- % number of osteoclast (vs. solvent control group) [1]: 40 ± 8.8%
- % number of osteoclast (vs. solvent control group) [2]: 31 ± 2.5^ac %
- activity at 0.1 µM: 63 ± 9.9%

Structure (SMILES): CCCNCc1sc(C)nc1-c1ccc(OCCCCCOc2ccc(C(=N)NO)cc2)cc1 [Compound 301, N-hydroxy-4-{5-[4-(2-methyl-5-propylaminomethyl-thiazol-4-yl)-phenoxy]-pentyloxy}-benzamidine]
- % number of osteoclast (vs. solvent control group) [1]: 10 ± 2.3^ab %
- % number of osteoclast (vs. solvent control group) [2]: 6 ± 2.3^ac %
- activity at 0.1 µM: 49 ± 5.1%

Structure (SMILES): Cc1nc(-c2ccc(OCCCCCOc3ccc(C(=N)NO)cc3)cc2)c(CN2CCCCC2)s1 [Compound 296, N-hydroxy-4-{5-[4-(2-methyl-5-piperidin-1-ylmethyl-thiazol-4-yl)-phenoxy]-pentyloxy}-benzamidine]
- % number of osteoclast (vs. solvent control group) [1]: 13 ± 2.6^ab %
- % number of osteoclast (vs. solvent control group) [2]: 8 ± 1.7^ac %
- activity at 0.1 µM: 46 ± 3.6%

Structure (SMILES): CN(Cc1cccnc1)c1nc(-c2ccc(OCCCCCOc3ccc(C(=N)NO)cc3)cc2)c(CN2CCOCC2)s1 [Compound 321, N-hydroxy-4-(5-{4-[2-(methyl-pyridin-3-ylmethyl-amino)-5-morpholin-4-ylmethyl-thiazol-4-yl]-phenoxy}-pentyloxy)-benzamidine]
- % number of osteoclast (vs. solvent control group) [1]: 19 ± 4.1^ab %
- % number of osteoclast (vs. solvent control group) [2]: 18 ± 3.0^ac %
- activity at 0.1 µM: 48 ± 7%

Structure (SMILES): Cc1nc(-c2ccc(OCCCCCOc3ccc(C(=N)NO)cc3)cc2)c(Cn2ccnc2)s1 [Compound 305, N-hydroxy-4-{5-[4-(5-imidazol-1-ylmethyl-2-methyl-thiazol-4-yl)-phenoxy]-pentyloxy}-benzamidine]
- % number of osteoclast (vs. solvent control group) [1]: 15 ± 4.8^ab %
- % number of osteoclast (vs. solvent control group) [2]: 11 ± 4.1^ac %
- activity at 0.1 µM: 58 ± 6.1%
